# Experiments:
# [1] = system: pIGF-1R/pIR and pAKT
# Experimental: Cells were serum-starved overnight, then either stimulated with 50 ng/ml IGF-1, IGF-2 or insulin for 10 minutes, or unstimulated. Cell lysates were subjected to MSD for measuring both total and phosphorylated IGF-1R and AKT. The phospho-protein values were normalized to the corresponding total protein levels (e.g., pIGF-1R/IGF-1R). The ligand-stimulated activation of IGF-1R or AKT is presented as the ratio of the pIGF-1R/IGF-1R or pAKT/AKT value in IGF-1, IGF-2 or insulin-stimulated cells vs. the value in the non-stimulated cells. […] 20 ug of total protein from cell lysates were subjected to Western blot analysis.
# Western Blots and MesoScale Discovery (MSD) Multiplex Plate Based Assays. […] Antibodies for pIGF-IR/pIR, pAkt, p-p44/42 MAPK and IRS2 for Western blot and MSD were purchased from Cell Signaling Technology and Santa Cruz Biotechnology (see figure legends) except for β-ACTIN® sourced from Millipore. Protein signals from Western blots were visualized using ODYSSEY® Imaging (Li-Cor Biosciences). Measurement of phospho- and total IGF-1R, IR, IRS-1, Akt and MAPK was also determined by commercially available multiplex plate based assays (MSD, Gaithersburg Md.). […] Measurement of IRS2 was determined using customized assays utilizing MSD technology.
# Cell lysates were subsequently subjected to Western blot analysis and evaluated for pIGF-1R/pIR and pAKT.
# [2] = system: CaR-1; experiment: MTS proliferation assay; type: cell-based, human
# Experimental: (§1) Cell lines and in vitro cytotoxicity assay. Cells were maintained at 37° C. under standard cell culture conditions. Cells were plated at an optimized density for each cell line per well in 96-well microtiter FALCON® plates, incubated overnight, and then exposed to a serial dilution of drug. […] The results were expressed as an IC50, which is the drug concentration required to inhibit cell proliferation to 50% of that of untreated control cells. The mean IC50 and standard deviation (SD) from multiple tests for each cell line were calculated.
# (§2) In vitro Cellular Proliferation Assays.
# [3] = system: LS-123; experiment: MTS proliferation assay; type: cell-based, human
# Experimental: as §1, §2
# [4] = system: T84; experiment: MTS proliferation assay; type: cell-based, human
# Experimental: as §1, §2
# [5] = system: SW948; experiment: MTS proliferation assay; type: cell-based, human
# Experimental: as §1, §2
structure (smiles),measurement,setting,value
"C[C@@]1(C(=O)Nc2ccc(F)nc2)CCCN1c1nc(Nc2cc(C3CC3)n[nH]2)c2cccn2n1 [BMS-754807, (2S)-1-(4-((5-cyclopropyl-1H-pyrazol-3-yl)amino)pyrrolo[2,1-f][1,2,4]triazin-2-yl)-N-(6-fluoro-3-pyridinyl)-2-methyl-2-pyrrolidinecarboxamide]",pIGF-1R/pIR and pAKT levels,[1],inhibited by BMS-754807 treatment in a dose-dependent manner
same,Sensitivity Classes,[2]; CaR-1,R (“R” refers Resistant)
same,IC50,"[2]; Homo sapiens, CaR-1, 72 h",375 nM
same,IC50,"[3]; Homo sapiens, LS-123, 72 h",4470 nM
same,Sensitivity to BMS-754807,"[3]; LS123, preliminary panel of 45 CRC cell lines",Resistant (resistant cell lines had IC50 values of >50 nmol/L)
same,Sensitivity Classes,[3]; LS-123,R (“R” refers Resistant)
same,IC50,"[4]; Homo sapiens, T84, 72 h",5200 nM
same,Sensitivity Classes,[4]; T84,R (“R” refers Resistant)
same,Sensitivity to BMS-754807,"[4]; T84, preliminary panel of 45 CRC cell lines",Resistant (resistant cell lines had IC50 values of >50 nmol/L)
same,IC50,"[5]; Homo sapiens, SW948, 72 h",18 nM
same,Sensitivity Classes,[5]; SW948,S (“S” refers Sensitive)
same,Sensitivity to BMS-754807,"[5]; SW948, preliminary panel of 45 CRC cell lines",Sensitive (a sensitive cell line was classified as one with an IC50 of ≦50 nmol/L)

# Reference: US20140309229A1, “METHODS FOR SELECTING AND TREATING CANCER IN PATIENTS WITH IGF-1R/IR INHIBITORS” (priority 2011, published 2014)
